Measured values reported in patent US4032659A (priority 1975, dated 1977).
Entries after “also recorded” stand apart in the source; their conditions may differ. Like-named read-outs stand apart in the source and are kept apart here.

Legend:
Herpes virus [1] = assay type: in vivo, mouse
Herpes virus [2] = assay: Herpes virus in eggs (chick embryo survival); assay type: in vivo, chicken eggs; settings: for Deaths on day 1 / Deaths on day 3 / Deaths on day 4 / Total Deaths 4th Day / Deaths on day 2: 12 eggs
[3] = system: Influenza Ann Arbor virus; assay: Chemoprophylaxis of Influenza Ann Arbor (A1) virus infection in mice; assay type: in vivo, mouse; settings: for Survivors / No. animals surviving after 5 days: oral
Influenza PR 8 virus = assay: Chemoprophylaxis of Influenza PR 8 virus infection in mice; assay type: in vivo, mouse
Mengo virus = Mengo virus infection in mice; assay type: in vivo, mouse; settings: oral
Source text: The results are illustrated in Table 43.

Vaccinia virus [4] = assay type: in vivo; settings: scarified rabbit skin
Vaccinia virus [5] = assay type: cell-based, fertile eggs; settings: various concentrations
virus infections = assay: Antiviral screening program, several viruses; settings: mouse, in vivo
Neurovaccinia virus = assay: Neurovaccinia (intracerebral) in mice; settings: mouse, in vivo
[6] = system: Influenza B Maryland virus; assay: Chemoprophylaxis of Influenza B Maryland virus infection in mice; assay type: in vivo, mouse; settings: for No. animals surviving when 18/20 of controls are dead / Survivors: oral
pox virus = assay: Pox virus infections of mice; settings: mouse, in vivo
[7] = system: Influenza B Massachusetts virus; settings: larger doses, different dose schedules; cited from earlier work
Columbia SK Polio virus = settings: mouse, in vivo

## NNC(N)=S [Thiosemicarbazide, thiosemicarbazide]
Herpes virus [1]; oral, total dose 5 μg
  No. animals surviving when 19/20 controls are dead: 0
Herpes virus [1]; oral, total dose .000005 μg
  No. animals surviving when 17/20 controls are dead: 0
Herpes virus [1]; oral, total dose .00005 μg
  No. animals surviving when 17/20 controls are dead: 3
  Survivors: 3
Herpes virus [1]; oral, total dose .0005 μg
  No. animals surviving after 7 days: 6
  No. animals surviving when 17/20 controls are dead: 0
Herpes virus [1]; oral, total dose .005 μg
  No. animals surviving after 7 days: 6
Herpes virus [1]; oral, total dose .05 μg
  No. animals surviving when 17/20 controls are dead: 0
Herpes virus [2]; all doses
  No. Living Longer Than Controls, total: 7
Herpes virus [2]; dose 2 μg
  Deaths on day 1: 3
  Deaths on day 3: 5
  Deaths on day 4: 3
  Total Deaths 4th Day: 12
Herpes virus [2]; dose 20 μg
  Deaths on day 2: 4
  Deaths on day 3: 6
  Total Deaths 4th Day: 12
Herpes virus [2]; dose .00005 μg
  Deaths on day 1: 2
  Deaths on day 2: 5
  Deaths on day 3: 2
  Total Deaths 4th Day: 10
Herpes virus [2]; dose .0005 μg
  Deaths on day 1: 2
  Deaths on day 2: 3
  Deaths on day 3: 2
  Deaths on day 4: 3
  Total Deaths 4th Day: 10
Herpes virus [2]; dose .005 μg
  Deaths on day 1: 4
  Deaths on day 2: 3
  Deaths on day 3: 3
  Total Deaths 4th Day: 10
Herpes virus [2]; dose .05 μg
  Deaths on day 2: 3
  Deaths on day 3: 5
  Total Deaths 4th Day: 9
Herpes virus [2]; dose .5 μg
  Deaths on day 1: 3
  Deaths on day 2: 4
  Deaths on day 3: 2
  Deaths on day 4: 2
  Total Deaths 4th Day: 11
[3]; total dose .5 μg
  Survivors: 0
Influenza PR 8 virus; intraperitoneal
  protection: almost no protection
Influenza PR 8 virus; intraperitoneal, total dose 5 μg
  Survivors: 0
Influenza PR 8 virus; intraperitoneal, total dose .005 μg
  Survivors: 0
Influenza PR 8 virus; intraperitoneal, total dose .05 μg
  Survivors: 0
Influenza PR 8 virus; intraperitoneal, total dose .5 μg
  Survivors: 0
Influenza PR 8 virus; oral, total dose .005 μg
  Survivors: 3
Influenza PR 8 virus; oral, total dose .5 μg
  Survivors: 0
Influenza PR 8 virus; subcutaneous, total dose 5 μg
  Survivors: 3
Influenza PR 8 virus; subcutaneous, total dose .0005 μg
  Survivors: 0
Influenza PR 8 virus; subcutaneous, total dose .005 μg
  Survivors: 0
Mengo virus; total dose .0000005 μg
  Survivors: 0
Mengo virus; total dose .000005 μg
  No. animals surviving after 6 days: 2
  Survivors: 1
Mengo virus; total dose .00005 μg
  No. animals surviving after 6 days: 5
  Survivors: 1
Mengo virus; total dose .0005 μg
  Survivors: 0
Mengo virus; total dose .005 μg
  Survivors: 0
Vaccinia virus [4]
  effect on pox formation: highly significant diminution in the vaccinia pox formation
Vaccinia virus [5]
  effect on pox formation on the membrane: No effect on pox formation on the membrane could be observed
Virus infections
  activity (in words): active against Influenza PR 8, Vaccinia in the mouse tail, Mengo virus, Herpes virus in mice and eggs, Influenza virus, and Vaccinia virus in rabbits
Neurovaccinia virus
  surviving animals (three instances, single dose level): one

## CN1C(=O)/C(=N\NC(N)=S)c2ccccc21 [Methisazone, 1-methylindole-2,3-dione,3-thiosemicarbazone, reference compound]
Herpes virus [1]; mouse, in vivo, po
  No. animals surviving after 6 days: 1
Herpes virus [1]; oral, total dose .00005 μg
  No. animals surviving after 6 days: 0
Herpes virus [1]; oral, total dose .0005 μg
  No. animals surviving after 6 days: 0
Herpes virus [1]; oral, total dose .005 μg
  No. animals surviving after 6 days: 0
Herpes virus [1]; oral, total dose .05 μg
  Survivors: 0
[3]; total dose 5 μg
  No. animals surviving after 5 days: 4
  Survivors: 0
[3]; total dose 50 μg
  No. animals surviving after 5 days: 3
  Survivors: 0
[3]; total dose .00005 μg
  No. animals surviving after 5 days: 6
  Survivors: 0
[3]; total dose .0005 μg
  No. animals surviving after 5 days: 5
  Survivors: 0
[3]; total dose .005 μg
  No. animals surviving after 5 days: 5
  Survivors: 0
[3]; total dose .05 μg
  No. animals surviving after 5 days: 4
  Survivors: 0
[3]; total dose .5 μg
  No. animals surviving after 5 days: 6
  Survivors: 0
[6]; mouse, in vivo
  activity: active against Influenza B Maryland virus
[6]; total dose 6 ng
  No. animals surviving when 18/20 of controls are dead: 4
  Survivors: 2
[6]; total dose 60 ng
  No. animals surviving when 18/20 of controls are dead: 4
  Survivors: 2
[6]; total dose 600 ng
  No. animals surviving when 18/20 of controls are dead: 2
  Survivors: 2
[6]; total dose 6 μg
  No. animals surviving when 18/20 of controls are dead: 4
  Survivors: 1
Pox virus
  activity: active against pox virus infections of mice
Virus infections
  activity (in words): found to have activity

## NC12CC3CC(CC(C3)C1)C2 [Amantadine, amantadine, reference compound]
[3]; 18 tests
  tests with survivors (of 18 tests): 5
Influenza PR 8 virus; 41 tests
  instances of a statistically significant number of survivors: one single instance
  instances of increased geometric mean survival time: 11
  number of survivors in the single significant instance: 3
Virus infections
  activity (in words): inactive against all of the other viruses in the test system
[7]
  chemoprophylaxis (in words): ineffective against Influenza B Massachusetts

## CCC(C)=NNC(N)=S [thiosemicarbazone]
Influenza PR 8 virus; drinking water 24 h pre- and 24 h post-infection
  protection against death: significantly protected against death
Columbia SK Polio virus
  statistically significant geometric mean survival time: two instances of a statistically significant geometric mean survival time
Vaccinia virus [4]
  effect on pox formation: dramatic reduction and even elimination of all pox formation over several dilutions; also recorded: highly significant diminution of pox formation
